Values belong to the molecule of their own block, whether it stands above or below them.
How the values were obtained:
HCT-15 = assay: cells; design: JFCR39 human cancer cell line panel, antiproliferative dose response (optical density), GI50; details: Homo sapiens, HCT-15
Method: (§1) Initially, we evaluated new DDP analogues for their antiproliferative activities across the panel of 39 human cancer cell lines, JFCR39[50],[51]. […] Purified DDPs was dissolved in DMSO (Specially Prepared Reagent, Nuclease and Protease tested, NACALAI, 09659-14) to prepare 5 mM solutions. The Each DDP solution (5 mM) was used for antiproliferative effects on cancer cell lines (Supplementary Notes 23, 24, 25, 26), biological activity against Drosophila (Supplementary Note 27), anti-HIV assay (Supplementary Note 28) and screening of amyloid Ab42 aggregation inhibitors (Supplementary Notes 29).

[1] = cytotoxicity in the anti-HIV assay (CC50); type: cell-based; details: human, MAGI cells (HeLa-CD4-LTR/beta-galactosidase)
MKN-B = assay: cells; design: JFCR39 human cancer cell line panel, antiproliferative dose response (optical density), GI50
Method: as §1

NCI-H460 = assay: cells; design: JFCR39 human cancer cell line panel, antiproliferative dose response (optical density), GI50; details: Homo sapiens, NCI-H460
Method: as §1

GI50 (HCT-15): 983 nM
Compound: C=C1CCC2C3(C)CC(C=C(C)C)OC3CCC2(C)C1Cc1c(OC)oc(C)c(C)c1=O (stereo not shown) [Compound 23]

Compound: C=C1CC[C@@H]2[C@](C)(CC[C@H]3O[C@H](C=C(C)C)C[C@@]23C)[C@@H]1Cc1c(OC)oc(CO)c(C)c1=O [Compound 20]
CC50 [1]: > 10000 nM

GI50 (MKN-B): 1280 nM | GI50 (NCI-H460): 90.1 nM
Compound: C=C1CC[C@H]2[C@]3(C)C[C@H](C=C(C)C)O[C@H]3CC[C@]2(C)[C@@H]1Cc1c(OC)oc(C)c(C)c1=O [Compound 24]

— paper PMC7156458, “Synthetic biology based construction of biological activity-related library of fungal decalin-containing diterpenoid pyrones” (Nature Communications, 2020)
